ChEMBL document CHEMBL1201862, “PubChem BioAssay data set” (2004)
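Assay format: 96-well plates, 48-hour exposure. GI50: concentration for 50% inhibition of growth.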 Activity calls are given as the source filed them. Rule as the data show it: active = GI50 up to about 1.1 µM and inactive = higher.

Tests used:
Experiment in all cases: NCI tumour cell line growth inhibition, 48 h
RPMI-8226 = system: RPMI-8226
DLD-1 = system: DLD-1
OVCAR-3 = system: OVCAR-3
HCT-15 = system: HCT-15
SF-295 = system: SF-295
RXF 393 = system: RXF 393
SK-MEL-5 = system: SK-MEL-5
COLO 205 = system: COLO 205
RXF 631 = system: RXF 631
HCC 2998 = system: HCC 2998
SNB-19 = system: SNB-19
NCI-H522 = system: NCI-H522
SR = system: SR
SF-268 = system: SF-268
LOX IMVI = system: LOX IMVI
EKVX = system: EKVX
UACC-62 = system: UACC-62
DMS-273 = system: DMS-273
UO-31 = system: UO-31
NCI-H23 = system: NCI-H23
K562 = system: K562
HOP-92 = system: HOP-92
U-251 = system: U-251
OVCAR-4 = system: OVCAR-4
SNB-75 = system: SNB-75
OVCAR-8 = system: OVCAR-8
A498 = system: A498
SF-539 = system: SF-539
HOP-18 = system: HOP-18
NCI-H226 = system: NCI-H226
SK-OV-3 = system: SK-OV-3
ACHN = system: ACHN
UACC-257 = system: UACC-257
A549 = system: A549
Malme-3M = system: Malme-3M
M19-MEL = system: M19-MEL
KM-20L2 = system: KM-20L2
SK-MEL-2 = system: SK-MEL-2
NCI-H460 = system: NCI-H460
CCRF-CEM = system: CCRF-CEM
OVCAR-5 = system: OVCAR-5
CAKI-1 = system: CAKI-1
786-0 = system: 786-0
TK-10 = system: TK-10
MOLT-4 = system: MOLT-4
HCT-116 = system: HCT-116
KM12 = system: KM12
SN12C = system: SN12C
IGROV-1 = system: IGROV-1
HL-60 = system: HL-60
SK-MEL-28 = system: SK-MEL-28
DMS-114 = system: DMS-114
SNB-78 = system: SNB-78
LXFL 529 = system: LXFL 529
HOP-62 = system: HOP-62
HT-29 = system: HT-29
SW-620 = system: SW-620
M14 = system: M14
XF498 = system: XF498

O=C(CO)CC(=O)C(=O)Nc1nc([N+](=O)[O-])cs1
GI50 (RPMI-8226): > 100 µM (inactive) | GI50 (DLD-1): > 100 µM (inactive) | GI50 (OVCAR-3): > 100 µM (inactive) | GI50 (HCT-15): > 100 µM | GI50 (SF-295): > 100 µM (inactive) | GI50 (RXF 393): > 100 µM (inactive) | GI50 (SK-MEL-5): > 100 µM (inactive) | GI50 (COLO 205): > 100 µM (inactive) | GI50 (RXF 631): > 100 µM (inactive) | GI50 (HCC 2998): > 100 µM (inactive) | GI50 (SNB-19): > 100 µM (inactive) | GI50 (NCI-H522): > 100 µM (inactive) | GI50 (SR): > 100 µM (inactive) | GI50 (SF-268): > 100 µM (inactive) | GI50 (LOX IMVI): > 100 µM (inactive) | GI50 (EKVX): > 100 µM (inactive) | GI50 (UACC-62): > 100 µM (inactive) | GI50 (DMS-273): > 100 µM (inactive) | GI50 (UO-31): > 100 µM (inactive) | GI50 (NCI-H23): > 100 µM (inactive) | GI50 (K562): > 100 µM (inactive) | GI50 (HOP-92): > 10 µM (inactive) | GI50 (U-251): > 100 µM (inactive) | GI50 (OVCAR-4): > 100 µM (inactive) | GI50 (SNB-75): 55.1 µM (inactive) | GI50 (OVCAR-8): > 100 µM (inactive) | GI50 (A498): > 100 µM (inactive) | GI50 (SF-539): > 100 µM (inactive) | GI50 (HOP-18): > 100 µM (inactive) | GI50 (NCI-H226): > 100 µM (inactive) | GI50 (SK-OV-3): > 100 µM (inactive) | GI50 (ACHN): > 100 µM (inactive) | GI50 (UACC-257): > 100 µM (inactive) | GI50 (A549): > 100 µM (inactive) | GI50 (Malme-3M): > 100 µM (inactive) | GI50 (M19-MEL): > 100 µM (inactive) | GI50 (KM-20L2): > 100 µM (inactive) | GI50 (SK-MEL-2): > 100 µM (inactive) | GI50 (NCI-H460): > 100 µM (inactive) | GI50 (CCRF-CEM): > 100 µM (inactive) | GI50 (OVCAR-5): > 100 µM (inactive) | GI50 (CAKI-1): > 100 µM (inactive) | GI50 (786-0): > 100 µM (inactive) | GI50 (TK-10): > 100 µM (inactive) | GI50 (MOLT-4): > 100 µM (inactive) | GI50 (HCT-116): > 100 µM (inactive) | GI50 (KM12): > 100 µM (inactive) | GI50 (SN12C): > 100 µM (inactive) | GI50 (IGROV-1): > 100 µM (inactive) | GI50 (HL-60): > 100 µM (inactive) | GI50 (SK-MEL-28): > 100 µM (inactive) | GI50 (DMS-114): > 100 µM (inactive) | GI50 (SNB-78): > 100 µM (inactive) | GI50 (LXFL 529): > 100 µM (inactive) | GI50 (HOP-62): > 100 µM (inactive) | GI50 (HT-29): > 100 µM (inactive) | GI50 (SW-620): > 100 µM (inactive) | GI50 (M14): > 100 µM (inactive)

O=C(NCCO)c1cc2c(cn1)[nH]c1ccccc12
GI50 (RPMI-8226): > 100 µM (inactive) | GI50 (DLD-1): 24.7 µM (inactive) | GI50 (OVCAR-3): > 100 µM (inactive) | GI50 (HCT-15): > 100 µM | GI50 (SF-295): > 100 µM (inactive) | GI50 (RXF 393): > 100 µM (inactive) | GI50 (SK-MEL-5): > 100 µM (inactive) | GI50 (COLO 205): > 100 µM (inactive) | GI50 (RXF 631): > 100 µM (inactive) | GI50 (HCC 2998): 16.9 µM (inactive) | GI50 (SNB-19): > 100 µM (inactive) | GI50 (NCI-H522): > 100 µM (inactive) | GI50 (SF-268): > 100 µM (inactive) | GI50 (LOX IMVI): > 100 µM (inactive) | GI50 (EKVX): > 100 µM (inactive) | GI50 (UACC-62): > 100 µM (inactive) | GI50 (DMS-273): > 100 µM (inactive) | GI50 (UO-31): > 100 µM (inactive) | GI50 (NCI-H23): > 100 µM (inactive) | GI50 (K562): > 100 µM (inactive) | GI50 (HOP-92): > 100 µM (inactive) | GI50 (U-251): > 100 µM (inactive) | GI50 (OVCAR-4): > 100 µM (inactive) | GI50 (SNB-75): 69.5 µM (inactive) | GI50 (OVCAR-8): > 100 µM (inactive) | GI50 (A498): > 100 µM (inactive) | GI50 (SF-539): > 100 µM (inactive) | GI50 (NCI-H226): > 100 µM (inactive) | GI50 (SK-OV-3): > 100 µM (inactive) | GI50 (ACHN): > 100 µM (inactive) | GI50 (UACC-257): > 100 µM (inactive) | GI50 (A549): > 100 µM (inactive) | GI50 (Malme-3M): 22.1 µM (inactive) | GI50 (XF498): > 100 µM (inactive) | GI50 (KM-20L2): > 100 µM (inactive) | GI50 (SK-MEL-2): 16.8 µM (inactive) | GI50 (NCI-H460): > 100 µM (inactive) | GI50 (CCRF-CEM): > 100 µM (inactive) | GI50 (OVCAR-5): > 100 µM (inactive) | GI50 (CAKI-1): > 100 µM (inactive) | GI50 (786-0): 17.4 µM (inactive) | GI50 (TK-10): > 100 µM (inactive) | GI50 (MOLT-4): > 100 µM (inactive) | GI50 (HCT-116): > 100 µM (inactive) | GI50 (KM12): > 100 µM (inactive) | GI50 (SN12C): > 100 µM (inactive) | GI50 (IGROV-1): > 100 µM (inactive) | GI50 (HL-60): > 100 µM (inactive) | GI50 (SK-MEL-28): > 100 µM (inactive) | GI50 (DMS-114): > 100 µM (inactive) | GI50 (SNB-78): > 100 µM (inactive) | GI50 (LXFL 529): > 100 µM (inactive) | GI50 (HOP-62): 17.9 µM (inactive) | GI50 (HT-29): > 100 µM (inactive) | GI50 (SW-620): > 100 µM (inactive) | GI50 (M14): > 100 µM (inactive)
